Laboratory results taken from US20170121315A1, “HETEROBICYCLICALLY SUBSTITUTED 4-OXOBUTANE ACID DERIVATIVES AND USE THEREOF” (priority 2014, published 2017).

Assays:
Type in all cases: biochemical
[1] = molecular target: T1, human macrophage elastase (HME/hMMP-12) (Homo sapiens, UniProt P39900); test: In vitro HME inhibition test (standard or high-sensitivity); conditions: in some cases mean values, rounded to two significant figures
T1 construct: purchased R&D Systems 917-MP
How it was run: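 Autoactivated HME (0.5 nM; high-sensitivity format 0.05 nM, ~16 h) with 5 μM quenched Mca-PLGLEEA-Dap(Dnp)-NH2 substrate in HEPES pH 7.4, NaCl, CaCl2, ZnCl2, EDTA, Brij buffer, 2 h at 37° C. Fluorescence at ex 323/em 393 nm; IC50 from signal versus concentration.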

[2] = molecular target: T2, MMP-1 (Homo sapiens, UniProt P03956); test: In vitro MMP-1 inhibition test; conditions: human MMP-1
T2 construct: purchased R&D Systems 901-MP
T2 sequence (P03956 100-469): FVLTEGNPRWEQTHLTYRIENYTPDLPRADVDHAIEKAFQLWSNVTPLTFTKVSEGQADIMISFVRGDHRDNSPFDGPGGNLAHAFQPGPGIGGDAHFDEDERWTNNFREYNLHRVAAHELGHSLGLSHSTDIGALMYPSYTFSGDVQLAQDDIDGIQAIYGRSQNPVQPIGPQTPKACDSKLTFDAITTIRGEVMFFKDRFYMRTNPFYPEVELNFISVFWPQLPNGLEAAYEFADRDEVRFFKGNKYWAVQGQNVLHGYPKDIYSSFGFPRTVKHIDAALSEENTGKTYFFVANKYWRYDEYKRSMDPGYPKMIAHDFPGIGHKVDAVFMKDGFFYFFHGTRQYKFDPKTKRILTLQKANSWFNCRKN
Text: (§1) The MMP-mediated amidolytic cleavage of a suitable peptide substrate leads to an increase in fluorescent light here too. The signal intensity of the fluorescent light is directly proportional to the enzyme activity. The active concentration of a test compound at which half the enzyme is inhibited (50% signal intensity of the fluorescent light) is reported as the IC50 value.
(§2) Recombinant MMP-1 (R&D Systems, 901-MP) is chemically activated in accordance with the manufacturer's instructions using APMA. 1 μl of the test compound to be analysed (as a solution in DMSO, suitable concentrations e.g. 1 nM to 30 μM) is pipetted into 24 μl of activated enzyme (final concentration e.g. 2 nM) in reaction buffer (50 mM Tris/HCl pH 7.5, 10 mM CaCl2, 150 mM NaCl, 0.05% Brij®-35) in a white 384-hole microtiter plate (MTP). The enzymatic reaction is started by adding the intramolecularly quenched Mca-Pro-Leu-Gly-Leu-Dpa(Dnp)-Ala-Arg-NH2 substrate (final concentration e.g. 10 μM; R&D Systems, ES-001), so as to result in a total test volume of 50 μl. The course of the MMP-1 reaction is measured by measuring the fluorescence intensity (excitation 320 nm, emission 410 nm) over a suitable period of time (e.g. over 120 min at a temperature of 32° C.).

[3] = molecular target: T3, MMP-7 (Homo sapiens, UniProt P09237); test: In vitro MMP-7 inhibition test; conditions: human MMP-7
T3 construct: purchased R&D Systems 907-MP
T3 sequence (P09237 95-267): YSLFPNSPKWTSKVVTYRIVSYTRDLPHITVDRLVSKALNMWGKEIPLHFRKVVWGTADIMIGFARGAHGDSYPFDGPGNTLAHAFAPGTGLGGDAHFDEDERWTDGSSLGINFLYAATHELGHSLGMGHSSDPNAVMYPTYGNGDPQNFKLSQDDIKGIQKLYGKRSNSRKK
Text: as §1
as §2, with “Recombinant MMP-7 (from R&D” for “Recombinant MMP-1 (R&D”, “Systems, 907-MP)” for “Systems, 901-MP)”, “e.g. 0.5” for “e.g. 2”, “the MMP-7” for “the MMP-1”

[4] = molecular target: T4, MMP-13 (Homo sapiens, UniProt P45452); test: In vitro MMP-13 inhibition test; conditions: human MMP-13
T4 construct: purchased R&D Systems 511-MP
Text: as §1
as §2, with “Recombinant MMP-13” for “Recombinant MMP-1”, “Systems, 511-MP)” for “Systems, 901-MP)”, “e.g. 0.1” for “e.g. 2”, “the MMP-13” for “the MMP-1”

T1 sequence (P39900 106-470): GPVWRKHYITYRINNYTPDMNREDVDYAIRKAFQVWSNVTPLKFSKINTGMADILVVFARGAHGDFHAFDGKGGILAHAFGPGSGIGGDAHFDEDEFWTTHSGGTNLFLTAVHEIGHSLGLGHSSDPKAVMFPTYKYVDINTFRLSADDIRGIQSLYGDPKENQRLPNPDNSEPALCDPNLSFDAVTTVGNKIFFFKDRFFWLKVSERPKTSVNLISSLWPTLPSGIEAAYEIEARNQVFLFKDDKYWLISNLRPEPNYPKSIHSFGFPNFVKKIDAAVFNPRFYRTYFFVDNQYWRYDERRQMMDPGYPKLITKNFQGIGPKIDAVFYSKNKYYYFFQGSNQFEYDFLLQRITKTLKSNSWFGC

Row | Structure (SMILES) | IC50 [1] [nM] | IC50 [2] [µM] | IC50 [3] [µM] | IC50 [4] [nM]
1 | O=C(CC(CCn1nnc2ccccc2c1=O)C(=O)O)c1coc2cc(OCCC3CCCC3)ccc12 (racemic) [Example 75, (+/−)-4-[6-(2-Cyclopentylethoxy)-1-benzofur-3-yl]-4-oxo-2-[2-(4-oxo-1,2,3-benzotriazin-3(4H)-yl)ethyl]butanoic acid] | 0.22 | > 40 | > 40 | 3800
2 | CCCCCOc1ccc2c(C(=O)CC(CCn3nnc4ccccc4c3=O)C(=O)O)coc2c1 (racemic) [Example 89, (+/−)-4-Oxo-2-[2-(4-oxo-1,2,3-benzotriazin-3(4H)-yl)ethyl]-4-[6-(pentyloxy)-1-benzofur-3-yl]butanoic acid] | 0.35 | > 40 | > 40 | 670
3 | CCCCCCCOc1ccc2c(C(=O)CC(CCn3nnc4ccccc4c3=O)C(=O)O)coc2c1 (racemic) [Example 101, (+/−)-4-[6-(Heptyloxy)-1-benzofur-3-yl]-4-oxo-2-[2-(4-oxo-1,2,3-benzotriazin-3(4H)-yl)ethyl]butanoic acid] | 0.53 | > 40 | > 40 | 1100
4 | O=C(CC(CCn1nnc2ccccc2c1=O)C(=O)O)c1cc2ccc(OCC3CC3)cc2s1 (racemic) [Example 111, (+/−)-4-[6-(Cyclopropylmethoxy)-1-benzothiophen-2-yl]-4-oxo-2-[2-(4-oxo-1,2,3-benzotriazin-3(4H)-yl)ethyl]butanoic acid] | 3.3 | > 40 | 4.1 | 1900
5 | O=C(CC(CCn1nnc2ccccc2c1=O)C(=O)O)c1cc2ccc(OCCc3ccccc3)cc2s1 (racemic) [Example 114, (+/−)-4-Oxo-2-[2-(4-oxo-1,2,3-benzotriazin-3(4H)-yl)ethyl]-4-[6-(2-phenylethoxy)-1-benzothiophen-2-yl]butanoic acid] | 0.3 | > 40 | 5.3 | 250
6 | CCCCCOc1ccc2cc(C(=O)CC(CCn3nnc4ccccc4c3=O)C(=O)O)sc2c1 (racemic) [Example 118, (+/−)-4-Oxo-2-[2-(4-oxo-1,2,3-benzotriazin-3(4H)-yl)ethyl]-4-[6-(pentyloxy)-1-benzothiophen-2-yl]butanoic acid] | 2.7 | > 40 | 30 | 1100
7 | O=C(CC(CCn1nnc2ccccc2c1=O)C(=O)O)c1noc2cc(OCc3ccc(F)cc3)ccc12 (racemic) [Example 136, (+/−)-4-{6-[(4-Fluorobenzyl)oxy]-1,2-benzoxazol-3-yl}-4-oxo-2-[2-(4-oxo-1,2,3-benzotriazin-3(4H)-yl)ethyl]butanoic acid] | 0.63 | > 40 | > 40 | 970
8 | CCCCCOc1ccc2c(C(=O)CC(CCn3nnc4ccccc4c3=O)C(=O)O)noc2c1 (racemic) [Example 140, (+/−)-4-Oxo-2-[2-(4-oxo-1,2,3-benzotriazin-3(4H)-yl)ethyl]-4-[6-(pentyloxy)-1,2-benzoxazol-3-yl]butanoic acid] | 0.28 | > 40 | > 40 | 330
9 | O=C(CC(CCn1nnc2ccccc2c1=O)C(=O)O)c1noc2cc(OCCc3ccccc3)ccc12 (racemic) [Example 144, (+/−)-4-Oxo-2-[2-(4-oxo-1,2,3-benzotriazin-3(4H)-yl)ethyl]-4-[6-(2-phenylethoxy)-1,2-benzoxazol-3-yl]butanoic acid] | 1.4 | > 40 | > 40 | 1600
10 | O=C(CC(CCn1nnc2ccccc2c1=O)C(=O)O)c1noc2cc(OCc3ccccc3)ccc12 (racemic) [Example 145, (+/−)-4-[6-(Benzyloxy)-1,2-benzoxazol-3-yl]-4-oxo-2-[2-(4-oxo-1,2,3-benzotriazin-3(4H)-yl)ethyl]butanoic acid] | 0.71 | > 40 | > 40 | 1500
11 | O=C(CC(CCn1nnc2ccccc2c1=O)C(=O)O)c1noc2cc(OCc3cccnc3)ccc12 (racemic) [Example 148, (+/−)-4-Oxo-2-[2-(4-oxo-1,2,3-benzotriazin-3(4H)-yl)ethyl]-4-[6-(pyridin-3-ylmethoxy)-1,2-benzoxazol-3-yl]butanoic acid] | 1.8 | > 40 | > 40 | 500
12 | O=C(CC(CCn1nnc2ccccc2c1=O)C(=O)O)c1noc2cc(OCC3CC3)ccc12 (racemic) [Example 150, (+/−)-4-[6-(Cyclopropylmethoxy)-1,2-benzoxazol-3-yl]-4-oxo-2-[2-(4-oxo-1,2,3-benzotriazin-3(4H)-yl)ethyl]butanoic acid] | 3.8 | > 40 | 29 | 2400
13 | O=C(CC(CCn1nnc2ccccc2c1=O)C(=O)O)c1noc2cc(OCC3CCCCC3)ccc12 (racemic) [Example 153, (+/−)-4-[6-(Cyclohexylmethoxy)-1,2-benzoxazol-3-yl]-4-oxo-2-[2-(4-oxo-1,2,3-benzotriazin-3(4H)-yl)ethyl]butanoic acid] | 1.3 | > 40 | > 40 | 2800
14 | O=C(CC(CCn1nnc2ccc(C(F)(F)F)cc2c1=O)C(=O)O)c1noc2cc(OCc3ccccc3)ccc12 (racemic) [Example 154, (+/−)-4-[6-(Benzyloxy)-1,2-benzoxazol-3-yl]-4-oxo-2-{2-[4-oxo-6-(trifluoromethyl)-1,2,3-benzotriazin-3(4H)-yl]ethyl}butanoic acid] | 0.75 | > 40 | 18 | 2300
15 | O=C(CC(CCn1nnc2ccc(C(F)(F)F)cc2c1=O)C(=O)O)c1noc2cc(OCC3CCOCC3)ccc12 (racemic) [Example 155, (+/−)-4-Oxo-2-{2-[4-oxo-6-(trifluoromethyl)-1,2,3-benzotriazin-3(4H)-yl]ethyl}-4-[6-(tetrahydro-2H-pyran-4-ylmethoxy)-1,2-benzoxazol-3-yl]butanoic acid] | 0.39 | > 40 | 24 | 2700
